Assay results as given in patent US20260240846A1, “ZAK ALPHA KINASE (MAP3K20) INHIBITORS FOR USE IN THE TREATMENT OF ANEMIA” (UNIVERSIDAD DE MURCIA, priority 2023, published 2026).

Columns and labels:
K562 cells = assay: Erythroid differentiation assay in K562 cells (hemin; hemoglobin accumulation, western blot); assay type: cell-based, human
Experimental: FIG. 1. ZAKα/P38 signaling pathway is activated in K562 after erythroid differentiation and its inhibition facilitates terminal erythroid differentiation. K562 cells were pre-treated with 0.1 μM nilotinib (Nil) (A, C, D), 1 μM anisomycin (B) and/or the indicated concentrations of the […] CX-5461 for 24 h, and then differentiated with 50 μM hemin for another 24 h. Hemoglobin accumulation (A, B, D) and NLRP1, phosphorylated P38, GATA1, ZAKα and ACTB (A-C) amounts were then evaluated by western blot. Immunoblots are representative of 3 independent experiments. #1, ACTB; #2, GATA1.
FIG. 2. The ZAKα/P38 signaling pathways is activated in K562 after erythroid differentiation. K562 cells were pre-treated with 0.1 μM nilotinib for 24 h and then differentiated with 50 μM hemin for the indicated times. The amounts of NLRP1, GATA1, phosphorylated P38, total ZAKα, phosphorylated ZAKα (Phos-tag) and ACTB were then evaluated by western blot.
(§1) FIG. 10. Imatinib and dasatinib promote erythropoiesis in human and zebrafish. (A) K562 cells were pretreated with the indicated concentrations of nilotinib, imatinib or dasatinib for 24 h and then differentiated with 50 μM hemin for 24 h. The amounts of NLRP1, GATA1, phosphorylated P38, total ZAKα and ACTB were then evaluated by western blot. (B) Zebrafish larvae were treated from 1 to 2 dpf with the indicated concentrations of nilotinib, imatinib or dasatinib. Representative images and number of neutrophils in larvae of 2 dpf treated by bath immersion with the indicated concentrations of imatinib and dasatinib. Each dot represents one individual and the mean±SEM for each group is also shown. P values were calculated by one-way ANOVA and Tukey's multiple range test. n.s., non-significant. ***P<0.001; ****P<0.0001.
(§2) FIG. 11. Ponatinib and bosutinib promote erythropoiesis in human and zebrafish. (A) K562 cells were pretreated with the indicated concentrations of nilotinib, ponatinib and bosutinib for 24 h and then differentiated with 50 μM hemin for the indicated times. The amounts of NLRP1, total ZAKα, GATA1, phosphorylated P38 and ACTB were then evaluated by western blot. (B) Number of neutrophils in larvae of 2 dpf treated by bath immersion with the indicated concentrations of ponatinib and bosutinib. Each dot represents one individual and the mean±SEM for each group is also shown. P values were calculated by one-way ANOVA and Tukey's multiple range test. n.s., non-significant, *P<0.05. **P<0.01. ***P<0.001.
K562 cells (CRL-3343; American Type Culture Collection) were maintained in RPMI culture medium supplemented with 10% fetal calf serum (FCS), 2 mM Glutamine, and 1% penicillin-streptomycin (Life Technologies). Cells were maintained and subcultured before confluence every 72 h. For differentiation, cells were treated with 50 μM hemin (#16009-13-5, Sigma-Aldrich) in the presence of 0.1% DMSO alone or with the caspase-1 inhibitor VX-765 (100 μM), the tyrosine kinase inhibitor nilotinib (0.1 μM), the RNA polymerase I inhibitor CX-5461 (200 nM, 1 μM and 10 μM) (all from MedChemExpress). Cells were collected at different time points (0, 24, 48 hours post-hemin addition), centrifuged, washed twice with PBS, and stored at −80° C. for further analysis.
Cells were lysed in 50 mM Tris-HCl (pH 7.5), 150 mM NaCl, 1% (w/v) NP-40 and fresh protease inhibitor (1/20, #P8340, Sigma-Aldrich). Protein quantification was performed with the BCA kit using BSA as standard. Cell lysates ([…]) in SDS sample buffer were subjected to electrophoresis on a polyacrylamide gel and transferred to nitrocellulose membranes. The membranes were incubated for 1 h with TTBS containing 5% (w/v) skimmed dried milk powder or 2% (w/v) BSA. The membranes were immunoblotted in the same buffer 16 h at 4° C. with the different primary antibodies diluted 1/1000. The blots were then washed with TTBS and incubated for 1 h at room temperature with secondary HRP-conjugated antibodies diluted 2,500-fold in 5% (w/v) skimmed milk in TTBS. […]

zebrafish larvae = assay: Chemical treatment of zebrafish larvae by bath immersion; counting of neutrophils and erythrocytes; assay type: in vivo, Zebrafish (Danio rerio H.)
Experimental: FIG. 3. ZAKα regulates hematopoiesis in zebrafish through the Nlrp1 inflammasome. Number of neutrophils (B, D, H), erythrocytes (F) and macrophages (J), and caspase-1 activity (K) in 2 dpf larvae either treated from 1 to 2 dpf by bath immersion with 1 μM nilotinib and/or 100 μM anisomycin (A-D) or obtained by injecting one-cell stage embryos with standard or zaka crRNAs/Cas9 complexes (E-K). Representative images of neutrophils (A, C, G), erythrocytes (E) and macrophages (I) are also shown. Each dot represents one individual and the mean±SEM for each group is also shown. P values were calculated using one-way ANOVA and Tukey's multiple range test (B) or Student's t-test (D, F, H, J, K). n.s., non-significant; *P<0.05; **P<0.01; ***P<0.001.
FIG. 6. NLRP1 is activated by phosphorylation of the linker domain after activation of ZAKα and pharmacological inhibition of this signaling pathway promotes erythropoiesis in DBA. (A-D) Number of neutrophils (A-C), and caspase-1 activity (D) in 2 dpf larvae obtained by injection of one-cell stage embryos with human NLRP1 (wild type-WT, S107A and S107D) and treated from 1 to 2 dpf by bath immersion with 1 μM nilotinib (B-D). Representative images of neutrophils (arrows) are also shown in C. (E, F) BMMCs from a DBA patient were incubated for 2 weeks in human methylcellulose complete medium at 37° C. in the presence or absence of the indicated concentrations of nilotinib, and colonies were counted using standard morphological criteria. Each dot represents one individual and the mean±SEM for each group is also shown. P values were calculated by one-way ANOVA and Tukey's multiple range test. n.s., non-significant; *P<0.05; **P<0.01; ***P<0.001; ****P<0.0001.
as §1, §2
Zebrafish (Danio rerio H.) were obtained from the Zebrafish International Resource Center and mated, staged, raised and processed as described in The Zebarfish Book. The lines Tg(mpx:eGFP)^t114, Tg(lyz:DsRED2)^n250, Tg(mfap4:mCherry)^ump6, Tg(gata1a:DsRed)^sd2 Tg(runx1:GAL4)^utn6), Tg(UAS-E1B:NTR-mCherry) and casper (mitfa^w2/w2; mpv17^a9/a9) were previously described. spint1a^hi2217Tg/hi2217Tg was isolated from insertional mutagenesis screens. The experiments performed comply with the Guidelines of the European Union Council (Directive 2010/63/EU) and the Spanish RD 53/2013. The experiments and procedures performed were approved by the Bioethical Committees of the University of Murcia (approval number #669/2020). […]

HSPCs from DBA patients = assay: Colony assay of PBMCs from DBA patients in methylcellulose medium; assay type: cell-based, human; details: 2 weeks, indicated concentrations (FIG. 13A)
Experimental: FIG. 13. […] PBMCs from DBA patients were incubated for 2 weeks in human methylcellulose complete medium at 37° C. in the presence or absence of the indicated concentrations of nilotinib, imatinib, dasatinib, bosutinib and ponatinib, and the number of erythroid (A) and myeloid (B) colonies counted using standard morphological criteria. Each dot represents one patient and the means±SEM for each group is also shown.

For Cc1cnc(CNC(=O)c2c(=O)c3ccc(N4CCCN(C)CC4)nc3n3c2sc2ccccc23)cn1 [CX-5461], the “erythroid differentiation in K562 cells” value (K562 cells; CX-5461 at indicated concentrations 24 h, then 50 μM hemin 24 h, hemoglobin accumulation (FIG. 1D)) was “impairs erythroid differentiation”.
In the case of COc1ccc(C[C@H]2NC[C@H](O)[C@H]2OC(C)=O)cc1 [anisomycin], the “neutrophil number in Nlrp1- and Zaka-deficient larvae” value (zebrafish larvae; larvae 2 dpf, anisomycin) is reported as “failed to increase neutrophil number” and the neutrophil number (zebrafish larvae; wild type larvae 2 dpf, bath immersion 1 to 2 dpf, 1 μM nilotinib, 100 μM anisomycin) is reported as “caused neutrophilia”.
Cc1ccc(NC(=O)c2ccc(CN3CCN(C)CC3)cc2)cc1Nc1nccc(-c2cccnc2)n1 [imatinib] was tested, and the GATA1 protein amounts (K562 cells; K562 cells, indicated concentrations of TKI 24 h, then 50 μM hemin, western blot (FIG. 10A, 11A)) was “enhancing GATA1 amount”, the “erythroid differentiation of K562 cells” value (K562 cells; indicated concentrations of TKI 24 h, then 50 μM hemin (FIG. 10A, 11A)) was “promoted erythroid differentiation of K562 cells by blocking the ZAKα/P38 axis” and the “defective erythropoiesis of HSPCs from DBA patients (erythroid colonies)” value (HSPCs from DBA patients) was “alleviated defective erythropoiesis”. The “number of erythrocytes in zebrafish larvae” value (zebrafish larvae; bath immersion 1 to 2 dpf, imatinib 1 and 10 μM, dasatinib 0.1 and 1 μM (FIG. 10B)) was “enhanced the number of erythrocytes”.
